The source of these data is patent publication US8541588B2, “Sulfonamide derivatives” (Pfizer Limited, priority 2009, dated 2013).

For the first assay, the target named is T1, Nav1.7 (or SCN9A) channel; HEK cells stably transfected with hSCN9A (Homo sapiens, UniProt Q15858).
T1 construct: expressed in transfected cells
T1 sequence (Q15858 whole entry): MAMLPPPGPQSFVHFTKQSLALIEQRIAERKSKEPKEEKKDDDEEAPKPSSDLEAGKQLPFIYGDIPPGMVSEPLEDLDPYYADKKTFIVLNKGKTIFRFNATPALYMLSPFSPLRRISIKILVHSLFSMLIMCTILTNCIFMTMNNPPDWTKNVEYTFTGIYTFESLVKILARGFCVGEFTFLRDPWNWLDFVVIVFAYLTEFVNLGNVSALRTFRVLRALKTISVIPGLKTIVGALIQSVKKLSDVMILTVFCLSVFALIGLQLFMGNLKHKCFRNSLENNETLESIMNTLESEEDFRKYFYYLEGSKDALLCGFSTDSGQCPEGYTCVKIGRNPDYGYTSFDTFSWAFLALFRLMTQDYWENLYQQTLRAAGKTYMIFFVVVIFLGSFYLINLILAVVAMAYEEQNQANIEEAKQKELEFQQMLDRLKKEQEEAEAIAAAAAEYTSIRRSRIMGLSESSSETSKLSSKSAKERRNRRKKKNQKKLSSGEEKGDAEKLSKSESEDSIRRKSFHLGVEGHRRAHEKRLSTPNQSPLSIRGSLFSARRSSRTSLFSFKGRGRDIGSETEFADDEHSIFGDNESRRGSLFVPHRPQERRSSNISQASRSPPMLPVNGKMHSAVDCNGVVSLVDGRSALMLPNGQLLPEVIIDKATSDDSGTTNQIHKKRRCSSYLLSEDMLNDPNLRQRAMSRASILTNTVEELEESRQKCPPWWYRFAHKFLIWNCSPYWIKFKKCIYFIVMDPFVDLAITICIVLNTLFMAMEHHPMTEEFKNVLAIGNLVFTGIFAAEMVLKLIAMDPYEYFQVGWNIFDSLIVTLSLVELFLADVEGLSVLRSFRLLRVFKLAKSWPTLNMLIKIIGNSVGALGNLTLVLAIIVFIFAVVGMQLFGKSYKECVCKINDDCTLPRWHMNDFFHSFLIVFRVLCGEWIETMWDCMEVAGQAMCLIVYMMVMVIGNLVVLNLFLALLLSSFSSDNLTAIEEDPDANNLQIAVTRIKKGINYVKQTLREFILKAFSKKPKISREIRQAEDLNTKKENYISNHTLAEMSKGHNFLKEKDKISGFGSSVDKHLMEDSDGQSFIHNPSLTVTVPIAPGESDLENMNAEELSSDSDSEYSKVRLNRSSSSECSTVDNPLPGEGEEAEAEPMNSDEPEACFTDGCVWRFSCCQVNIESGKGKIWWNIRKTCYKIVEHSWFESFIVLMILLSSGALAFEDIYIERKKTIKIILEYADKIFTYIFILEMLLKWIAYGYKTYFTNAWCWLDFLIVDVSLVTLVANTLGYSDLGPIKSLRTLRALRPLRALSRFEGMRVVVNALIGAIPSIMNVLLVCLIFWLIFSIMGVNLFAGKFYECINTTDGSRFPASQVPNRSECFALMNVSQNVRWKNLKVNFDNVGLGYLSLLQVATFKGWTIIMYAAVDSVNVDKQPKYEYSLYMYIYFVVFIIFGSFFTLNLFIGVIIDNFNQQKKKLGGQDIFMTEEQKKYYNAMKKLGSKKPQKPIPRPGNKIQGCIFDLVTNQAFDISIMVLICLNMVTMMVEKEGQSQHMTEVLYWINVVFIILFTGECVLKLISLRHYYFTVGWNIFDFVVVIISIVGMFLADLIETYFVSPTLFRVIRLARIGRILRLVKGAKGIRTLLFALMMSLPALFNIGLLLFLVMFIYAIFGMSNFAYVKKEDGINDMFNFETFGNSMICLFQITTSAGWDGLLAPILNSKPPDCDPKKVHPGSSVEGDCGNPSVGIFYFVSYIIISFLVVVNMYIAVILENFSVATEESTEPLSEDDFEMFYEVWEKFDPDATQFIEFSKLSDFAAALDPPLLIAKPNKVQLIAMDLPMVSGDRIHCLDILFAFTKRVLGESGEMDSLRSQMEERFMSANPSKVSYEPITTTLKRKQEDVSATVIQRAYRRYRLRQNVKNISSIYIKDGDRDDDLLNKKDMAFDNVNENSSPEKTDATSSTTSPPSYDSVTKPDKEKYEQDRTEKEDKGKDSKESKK
In words: Nav1.7 block, PatchXpress 7000 automated whole-cell voltage clamp, estimated IC50 (EIC50). The assay is classed as cell-based. The following applies: PatchXpress platform; hSCN9A HEK cells held at V1/2 of inactivation; estimated IC50.
A word on the IC50: it is the concentration needed to halve the response being measured. As for `N#Cc1cc(S(=O)(=O)Nc2ncns2)ccc1Oc1ccccc1-c1ccc(F)c(F)c1` [Example 52, 3-cyano-4-[(3′,4′-difluorobiphenyl-2-yl)oxy]-N-1,2,4-thiadiazol-5-ylbenzenesulfonamide], the half-inhibitory concentration (IC50) is 360 nM.
Regarding `N#Cc1cc(S(=O)(=O)Nc2ncns2)ccc1Oc1ccccc1-c1cc(F)cc(F)c1` [Example 53, 3-cyano-4-[(3′,5′-difluorobiphenyl-2-yl)oxy]-N-1,2,4-thiadiazol-5-ylbenzenesulfonamide], the concentration for half-maximal inhibition (IC50) is 3540 nM.
For the compound `Cn1nccc1-c1cc(Cl)ccc1Oc1ccc(S(=O)(=O)Nc2ncc(F)s2)cc1F` [Example 275, 4-[4-chloro-2-(2-methyl-2H-pyrazol-3-yl)-phenoxy]-3-fluoro-N-(5-fluoro-thiazol-2-yl)-benzenesulfonamide], the IC50 was 70 nM.
On the same count and under the same terms, under `CCn1nc(C)c(-c2ccccc2Oc2ccc(S(=O)(=O)Nc3ncns3)cc2C#N)c1C` [Example 72, 3-cyano-4-[2-(1-ethyl-3,5-dimethyl-1H-pyrazol-4-yl)phenoxy]-N-1,2,4-thiadiazol-5-ylbenzenesulfonamide] stands above 300 nM; under `O=S(=O)(Nc1nccs1)c1ccc(Oc2ccc(-c3ccccc3)cc2)cc1F` [Example 209, 4-(biphenyl-4-yloxy)-2-fluoro-N-(thiazol-2-yl)benzenesulfonamide], 590 nM; under `N#Cc1cc(S(=O)(=O)Nc2nccs2)ccc1Oc1ccc(F)cc1-c1ccc(CO)cc1` [Example 162, 3-cyano-4-{[5-fluoro-4′-(hydroxymethyl)biphenyl-2-yl]oxy}-N-1,3-thiazol-2-ylbenzenesulfonamide], 420 nM.
As to `N#Cc1cc(S(=O)(=O)Nc2ncns2)ccc1Oc1ccccc1-c1ccc(F)cc1F` [Example 56, 3-cyano-4-[(2′,4′-difluorobiphenyl-2-yl)oxy]-N-1,2,4-thiadiazol-5-ylbenzenesulfonamide], the IC50 was 380 nM.
Regarding `COc1ccc(-c2ccccc2Oc2ccc(S(=O)(=O)Nc3ncns3)cc2C#N)cc1` [Example 51, 3-cyano-4-[(4′-methoxybiphenyl-2-yl)oxy]-N-1,2,4-thiadiazol-5-ylbenzenesulfonamide], the IC50 is 330 nM.
For `N#Cc1cc(S(=O)(=O)Nc2nccs2)ccc1Oc1cc(C2CC2)nn1C1CCCCC1` [Example 192, 3-Cyano-4-(2-cyclohexyl-5-cyclopropyl-2H-pyrazol-3-yloxy)-N-thiazol-2-yl-benzenesulfonamide], the half-maximal inhibitory concentration (IC50) was 2050 nM.

The assay is the same for the next values; noted with them: estimated IC50; hSCN9A HEK cells, PatchXpress platform; Examples 283-814.
As to `Cc1coc(-c2cc(Cl)ccc2Oc2ccc(S(=O)(=O)Nc3nccs3)cc2C#N)n1` [Example 318, 4-[4-chloro-2-(4-methyl-1,3-oxazol-2-yl)phenoxy]-3-cyano-N-1,3-thiazol-2-ylbenzenesulfonamide], the IC50 is 1300 nM.
As for `CCn1nc(-c2ccc(Oc3ccc(S(=O)(=O)Nc4nccs4)cc3C#N)c(F)c2)cc1C(F)(F)F` [Example 324, 3-cyano-4-{4-[1-ethyl-5-(trifluoromethyl)-1H-pyrazol-3-yl]-2-fluorophenoxy}-N-1,3-thiazol-2-ylbenzenesulfonamide], the half-inhibitory concentration (IC50) was above 1000 nM.
Still for that read-out and setting: for `N#Cc1cc(S(=O)(=O)Nc2nccs2)ccc1Oc1ccc(-c2cccc(C(F)(F)F)n2)cc1` [Example 453, 3-cyano-N-1,3-thiazol-2-yl-4-{4-[6-(trifluoromethyl)pyridin-2-yl]phenoxy}benzenesulfonamide] the value was 1700 nM.
In the case of `N#Cc1cc(S(=O)(=O)Nc2nccs2)ccc1Oc1ccc(I)cc1-c1ccn[nH]1` [Example 391, 3-cyano-4-[4-iodo-2-(1H-pyrazol-5-yl)phenoxy]-N-1,3-thiazol-2-ylbenzenesulfonamide], the IC50 is 2.5 nM.
On the same count and under the same terms, under `N#Cc1cc(S(=O)(=O)Nc2cscn2)ccc1Oc1cccc(Cc2cc[nH]n2)c1` [Example 768, 3-cyano-4-[3-(1H-pyrazol-3-ylmethyl)phenoxy]-N-1,3-thiazol-4-ylbenzenesulfonamide] stands 11000 nM; under `Cn1ncc(F)c1-c1cc(Cl)ccc1Oc1ccc(S(=O)(=O)Nc2nccs2)cc1F` [Example 307, 4-[4-Chloro-2-(4-fluoro-1-methyl-1H-pyrazol-5-yl)phenoxy]-3-fluoro-N-1,3-thiazol-2-ylbenzenesulfonamide], 810 nM; under `CC(C)(C)n1cc(Cc2cccc(Oc3ccc(S(=O)(=O)Nc4cscn4)cc3C#N)c2)cn1` [Example 419, 4-{3-[(1-tert-butyl-1H-pyrazol-4-yl)methyl]phenoxy}-3-cyano-N-1,3-thiazol-4-ylbenzenesulfonamide], 2100 nM.
As for `N#Cc1cc(S(=O)(=O)Nc2ncns2)ccc1Oc1ccc(-c2nc(CO)co2)cc1` [Example 665, 3-Cyano-4-{4-[4-(hydroxymethyl)-1,3-oxazol-2-yl]phenoxy}-N-1,2,4-thiadiazol-5-ylbenzenesulfonamide], the IC50 was above 1000 nM.
On to `N#Cc1cc(S(=O)(=O)Nc2ncc(F)s2)ccc1Oc1ccc(CCCO)cc1-c1cn[nH]c1` [Example 714, 3-cyano-N-(5-fluoro-1,3-thiazol-2-yl)-4-[4-(3-hydroxypropyl)-2-(1H-pyrazol-4-yl)phenoxy]benzenesulfonamide], for which the 50% inhibitory concentration (IC50) is 190 nM.
Consider `Cn1nc(C(F)(F)F)cc1-c1ccc(Oc2cc(F)c(S(=O)(=O)Nc3nccs3)cc2Cl)c(C#N)c1` [Example 296, 5-chloro-4-{2-cyano-4-[1-methyl-3-(trifluoromethyl)-1H-pyrazol-5-yl]phenoxy}-2-fluoro-N-1,3-thiazol-2-ylbenzenesulfonamide], for which the IC50 was 25 nM.
On to `COCCn1nccc1-c1cc(Cl)ccc1Oc1ccc(S(=O)(=O)Nc2ncns2)cc1C#N` [Example 562, 4-{4-chloro-2-[1-(2-methoxyethyl)-1H-pyrazol-5-yl]phenoxy}-3-cyano-N-1,2,4-thiadiazol-5-ylbenzenesulfonamide], for which the concentration for half-maximal inhibition (IC50) is 17 nM.
For `N#Cc1cc(S(=O)(=O)Nc2ncns2)cc(F)c1Oc1ccc(F)cc1-c1ccn[nH]1` [Example 459, 3-cyano-5-fluoro-4-[4-fluoro-2-(1H-pyrazol-5-yl)phenoxy]-N-1,2,4-thiadiazol-5-ylbenzenesulfonamide], the IC50 was 840 nM.
Consider `Cn1nccc1-c1cc(Cl)ccc1Oc1ncc(S(=O)(=O)Nc2nccs2)cc1Cl` [Example 759, 5-chloro-6-[4-chloro-2-(1-methyl-1H-pyrazol-5-yl)phenoxy]-N-1,3-thiazol-2-ylpyridine-3-sulfonamide], for which the IC50 was 250 nM.
In the case of `N#Cc1cc(S(=O)(=O)Nc2nccs2)ccc1Oc1cnn(Cc2ccc(Cl)cc2)c1` [Example 331, 4-{[1-(4-chlorobenzyl)-1H-pyrazol-4-yl]oxy}-3-cyano-N-1,3-thiazol-2-ylbenzenesulfonamide], the IC50 is 2000 nM.
`O=S(=O)(Nc1ccncn1)c1cc(Cl)c(Oc2ccc(Cl)cc2C2CCNCC2)cc1F` [Example 560, 5-chloro-4-(4-chloro-2-piperidin-4-ylphenoxy)-2-fluoro-N-pyrimidin-4-ylbenzenesulfonamide]: the concentration for half-maximal inhibition (IC50) is 78 nM.
In the case of `N#Cc1cc(S(=O)(=O)Nc2nccs2)ccc1Oc1ccc(-n2cccn2)cc1` [Example 469, 3-cyano-4-[4-(1H-pyrazol-1-yl)phenoxy]-N-1,3-thiazol-2-ylbenzenesulfonamide], the IC50 is 3300 nM.
Turning to `Cn1nccc1-c1cc(F)c(F)cc1Oc1ccc(S(=O)(=O)Nc2nccs2)cc1C#N` [Example 526, 3-cyano-4-[4,5-difluoro-2-(1-methyl-1H-pyrazol-5-yl)phenoxy]-N-1,3-thiazol-2-ylbenzenesulfonamide], the IC50 was 160 nM.
The same measure, in the same setting: for `N#Cc1cc(S(=O)(=O)Nc2ccc(F)cn2)ccc1Oc1ccccc1-c1nnco1` [Example 580, 3-cyano-N-(5-fluoropyridin-2-yl)-4-[2-(1,3,4-oxadiazol-2-yl)phenoxy]benzenesulfonamide] the value was 6900 nM.
On to `Cc1nnc(NS(=O)(=O)c2ccc(Oc3ccc(Cl)cc3-c3ccnn3C)c(F)c2)s1` [Example 776, 4-[4-chloro-2-(1-methyl-1H-pyrazol-5-yl)phenoxy]-3-fluoro-N-(5-methyl-1,3,4-thiadiazol-2-yl)benzenesulfonamide], for which the IC50 was 2500 nM.
On to `N#Cc1cc(S(=O)(=O)Nc2ncns2)ccc1Oc1ccc(F)cc1-c1ccn[nH]1` [Example 499, 3-cyano-4-[4-fluoro-2-(1H-pyrazol-5-yl)phenoxy]-N-1,2,4-thiadiazol-5-ylbenzenesulfonamide], for which the IC50 was 190 nM.
As for `O=S(=O)(Nc1cscn1)c1cc(F)c(Oc2ccc(Cl)cc2-c2cn[nH]c2)cc1F` [Example 605, 4-[4-chloro-2-(1H-pyrazol-4-yl)phenoxy]-2,5-difluoro-N-1,3-thiazol-4-ylbenzenesulfonamide], the IC50 is 100 nM.
For `N#Cc1cc(S(=O)(=O)Nc2nccs2)ccc1Oc1ccc(Cl)cc1C1CNC1` [Example 690, 4-(2-azetidin-3-yl-4-chlorophenoxy)-3-cyano-N-1,3-thiazol-2-ylbenzenesulfonamide], the IC50 is 110 nM.

Staying with this assay, now noted: estimated IC50; hSCN9A HEK cells, PatchXpress platform; Examples 815-1040.
Consider `O=S(=O)(Nc1ncns1)c1cnc(Oc2ccc(C(F)(F)F)cc2-c2ccnnc2)c(Cl)c1` [Example 974, 5-chloro-6-[2-pyridazin-4-yl-4-(trifluoromethyl)phenoxy]-N-1,2,4-thiadiazol-5-ylpyridine-3-sulfonamide], for which the IC50 is 74 nM.
In the case of `N#Cc1cc(S(=O)(=O)Nc2ncns2)ccc1Oc1ccc(Cl)cc1-c1ccnc(NC2CCC2)c1` [Example 902, 4-{4-chloro-2-[2-(cyclobutylamino)pyridin-4-yl]phenoxy}-3-cyano-N-1,2,4-thiadiazol-5-ylbenzenesulfonamide], the 50% inhibitory concentration (IC50) was 2.3 nM.
Still for that read-out and setting: for `Cn1nccc1-c1cc(Cl)ccc1Oc1ccc(S(=O)(=O)Nc2cccnn2)cc1Cl` [Example 862, 3-chloro-4-[4-chloro-2-(1-methyl-1H-pyrazol-5-yl)phenoxy]-N-pyridazin-3-ylbenzenesulfonamide] the value was 240 nM; for `N#Cc1cc(S(=O)(=O)Nc2ncns2)ccc1Oc1ccc(Cl)cc1-c1cccc(C(=O)O)c1` [Example 1002, 5′-chloro-2′-{2-cyano-4-[(1,2,4-thiadiazol-5-ylamino)sulfonyl]phenoxy}biphenyl-3-carboxylic acid], 140 nM.
